In patent publication US20130344065A1, “Combination Treatment with VEGF-C Antagonists” (Vegenics Pty Ltd, priority 2010, published 2013):
“And” between values parts separate entries of the source, which are not always exact repeats. Identical values can stand only once. “Also recorded” adds a separate entry of the source.

Assays:
[1] = system: PC-3 human prostate tumors (xenograft); assay: Subcutaneous PC-3 xenograft, single therapy (Example 2); assay type: in vivo, nude mice
Experimental: Cells were implanted into 80 mice. […] The treatment with drugs began on the day after randomization. […] At the end of the experiment, statistical analysis was performed on the tumor growth rate of each treatment group versus that of the control.

[2] = system: U87MG glioblastoma tumors (xenograft); assay: U87MG glioblastoma xenograft, single agent (Example 6)
Experimental: Antibodies were administered twice per week by intraperitoneal injection.
To initiate the study, 5×10^6 of U-87 cells suspended in 100 μl of a mixture of medium/Matrigel (1:1) were subcutaneously implanted to the nude mice in the right flank region. Cancer cells were planted into 80 mice. Animals were monitored for tumor growth daily after cell implantation. When tumor volumes reached 80-100 mm^3, mice were randomized into 5 groups of 10 mice each using only mice having tumor volumes closest to the mean value. Mice with tumor volumes too big or too small were excluded from the study. Tumor volumes were measured using the formula V=L×W×H×π/6, where L and W represented the longer and shorter diameters of the tumor and H represented the height of the tumor. The treatment with drugs was initiated on the day after randomization. […] The treatment was carried out twice weekly for 27 days. Throughout the entire study, tumor volumes were measured twice weekly and body weights once weekly. […] Unscheduled sacrifices were performed if tumor volumes reached>1,500 mm^3, animals lost>25% of their original body weights, tumor ulceration appeared, or mice became moribund.

[3] = system: PC-3 human prostate carcinoma xenografts; assay: PC-3 xenograft combination therapy (Example 3, first study);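 further: subcutaneous PC-3 tumors in male athymic NCr nude mice aged 6-7 weeks, combination agents dosed within 30 min of each other, animals euthanized once tumors exceeded 2 g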
Experimental: Docetaxel was administered intravenously at 10 mg/kg weekly for three injections.
HIgG1 Isotype control-humanised antibody (6.4-12.36 mg/ml) and VGX-100 (5.53 and 5.75 mg/ml) were provided as frozen colorless stock solutions in Dulbecco's phosphate buffered saline (DPBS) and stored from light at −80° C. The stock solutions were thawed and stored at 4° C. when treatment began. The dosing solutions (40 mg/kg in 0.2 ml/20 g body weight) were prepared by diluting the stock solution with DPBS. The resulting formulations were clear with pH values ranging from 7.02-7.21. The dosing vials were kept on wet ice during dosing, gently pipetted and not aspirated through a needle except during administration. Dosing solutions were prepared weekly in DPBS and stored protected from light at 4° C. while not in use.
Docetaxel (lot no. D9A095) was manufactured by Sanofi-Aventis and obtained from McKesson as a pale yellow solution in 50% EtOH/50% Tween80. It was stored protected from light at 4° C. Docetaxel was diluted as directed on the package insert with the provided diluent (sterile water) to produce a clear and colorless 10 mg/ml stock solution. On each treatment day, a fresh 10 mg/ml stock was prepared and further diluted with water to achieve the appropriate concentration. The resulting solution was clear and colorless with a pH of 7.16.
All test articles were administered within two hours of preparation. For groups receiving combination therapy, the drugs were administered in the order presented in Table 1 and within 30 minutes of one another.
Male NCR(NCRNU-M) athymic mice were obtained from Taconic. They were 6-7 weeks old on Day 1 of the experiment. The mice were fed irradiated Rodent Diet 5053 (LabDiet™) and water ad libitum. The mice were housed in static cages with Bed-O'Cobs™ bedding inside Biobubble® Clean Rooms that provide H.E.P.A filtered air into the bubble environment at 100 complete air changes per hour. All treatments, body weight determinations, and tumor measurements were carried out in the bubble environment. The environment was controlled to a temperature range of 21.1±1.1° C. (70±2° F.) and a humidity range of 30-70%.
Test mice were implanted subcutaneously on Day 0. […] Mice with tumors in excess of 2 g or with ulcerated tumors were euthanized, as were those found in obvious distress or in a moribund condition.
PC-3 cells were obtained from ATCC and expanded using Ham's F-12 media supplemented with 10% fetal bovine serum and 1% penicillin-streptomycin-glutamine in 5% CO2 atmosphere at 37° C. When expansion was complete, the cells were collected using Trypsin (Cell Gro®), the trypsin neutralized, and the cells pooled for implantation. The PC-3 (Passage 10) cell suspension was counted using trypan blue exclusion with a hemacytometer. The cell suspension was reduced to a pellet using an Eppendorf 5810R centrifuge at 1500 rpm (300×g) for 5 minutes at 4° C. A 2.5×10^7 cells/ml suspension was prepared in 50% serum free media and 50% Matrigel®. Pre-injection viability was 97.7%. Test animals were implanted subcutaneously on Day 0 with 5×10^6 cells/animal (0.2 ml) using a 27-gauge needle and syringe. The cell suspension was maintained on wet ice to minimize the loss of viability and inverted frequently to maintain a uniform cell suspension during the inoculation procedure.
Treatments began on Day 8, when the mean estimated tumor mass for all groups in the experiment was 129 mg (range of group means, 123-134 mg). All animals weighed≧19.2 g at the initiation of therapy. Mean group body weights at first treatment were matched (range of group means, 21.5-22.8 g). All animals were dosed according to individual body weight on the day of treatment (0.2 ml/20 g).

[4] = VGX-100 10 and 20 mg/kg IP twice weekly

## VGX-100: VEGF-C antibody; heavy chain SEQ ID NO: 3, light chain SEQ ID NO: 4
[1]; VGX-100 40 mg/kg IP twice weekly, 40 mg/kg
  Tumor volume response: significant single-agent activity; also recorded: efficacy equivalent to bevacizumab at 10 mg/kg
[1]; [4]
  Tumor volume response: improved over the negative control
[2]; VGX-100 40 mg/kg IP twice weekly
  Tumor growth vs vehicle control: significantly inhibited tumor growth
[2]; [4]
  Tumor volume response: improved over the negative control
[3]; 750 mg, individual animals
  Time to evaluation size: 39.5 days and 22.8 days and 19.9 days and 22.3 days and 33.5 days and 18.5 days and 31.1 days and 19.4 days and 22.0 days and 22.2 days
[3]; T-C, evaluation size 750 mg, same doses
  Tumor Growth Delay: 2.2 days
[3]; VGX-100 40 mg/kg IP, bevacizumab 10 mg/kg IP, docetaxel 10 mg/kg IV, median tumor mass vs control
  % T/C Day 22: 87%
[3]; at day 160
  % T/C: tumor burden in treatment group compared to control: 97.9%
[3]; at termination, Day 160, same doses
  % TFS (tumor free survivors): 0%
[3]; group mean
  Td: 8.3 days
  Time to evaluation size: 25.1 days
  Time to fold growth EP: 20.4 days
[3]; group median
  Td: 6.2 days
  Time to evaluation size: 22.2 days
  Time to fold growth EP: 20.8 days
[3]; individual animals
  Time to fold growth EP: 27.4 days and 20.9 days and 16.4 days and 21.5 days and 28.2 days and 13.9 days and 21.3 days and 15.8 days and 17.9 days and 20.7 days
[3]; individual animals, yes/no
  Complete regression: no
  Partial regression: no
  Tumor free survivor: no
[3]; number of animals of 10
  Total CR: 0
  Total PR: 0
  Total TFS: 0
[3]; same doses
  % CR (complete regression): 0%
  % PR (partial regression): 0%
  Anticancer activity of regimen: ineffective
  Apparent Net Tumor Cell Kill (logs): −2.85 logs
  Tumor regressions: Nor tumor regressions were observed
[3]; tumor doubling time, individual animals
  Td: 16.6 days and 5.1 days and 6.0 days and 6.1 days and 14.1 days and 5.7 days and 12.3 days and 6.3 days and 7.1 days and 3.8 days
